Results from US10023593B2, “ALK kinase inhibitor, and preparation method and uses thereof” (BEIJING PEARL BIOTECHNOLOGY LIMITED LIABILITY COMPANY, priority 2014, dated 2018).

How the values were obtained:
[1] = target: T1, L1196M mutant ALK kinase (Homo sapiens, UniProt Q9UM73, L1196M); test: HTRF KinEASE-TK assay, inhibitory activity on L1196M mutant ALK kinase; type: biochemical; details: L1196M mutant ALK 1 ng/μl, substrate 1 μM, ATP 5 μM, 30° C. 35 minutes, read-out: Inhibition on ALK kinases (L1196M mutant), IC50
T1 construct: purchased Sino-US Crown Bioscience, Inc. batch number ALKm_20110923
Method in brief: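 HTRF TK assay: mutant kinase 1 ng/μl, substrate 1 μM, ATP 5 μM, 5 mM MgCl2, 1 mM DTT, 1% DMSO, 35 min at 30 °C. 665/615 ratio read; inhibition normalised to no-compound and 10.4 μM LDK-378 controls; IC50 from curve fit.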

[2] = tested on: NCI-H2228 cell line; test: CellTiter-Glo cell proliferation inhibition on NCI-H2228 cell line; type: cell-based; details: Homo sapiens, NCI-H2228 cells, 5000 cells/well, 4 days drug treatment
Method in brief: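 NCI-H2228 cells, 5000/well in RPMI-1640 + 10% FBS, treated with compounds 2 h after seeding (0.5% DMSO final) for 4 days at 37° C. Viability by CellTiter-Glo luminescence; inhibition relative to DMSO control, IC50 from curve fit.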

T1 sequence (Q9UM73 19-1620 L1196M): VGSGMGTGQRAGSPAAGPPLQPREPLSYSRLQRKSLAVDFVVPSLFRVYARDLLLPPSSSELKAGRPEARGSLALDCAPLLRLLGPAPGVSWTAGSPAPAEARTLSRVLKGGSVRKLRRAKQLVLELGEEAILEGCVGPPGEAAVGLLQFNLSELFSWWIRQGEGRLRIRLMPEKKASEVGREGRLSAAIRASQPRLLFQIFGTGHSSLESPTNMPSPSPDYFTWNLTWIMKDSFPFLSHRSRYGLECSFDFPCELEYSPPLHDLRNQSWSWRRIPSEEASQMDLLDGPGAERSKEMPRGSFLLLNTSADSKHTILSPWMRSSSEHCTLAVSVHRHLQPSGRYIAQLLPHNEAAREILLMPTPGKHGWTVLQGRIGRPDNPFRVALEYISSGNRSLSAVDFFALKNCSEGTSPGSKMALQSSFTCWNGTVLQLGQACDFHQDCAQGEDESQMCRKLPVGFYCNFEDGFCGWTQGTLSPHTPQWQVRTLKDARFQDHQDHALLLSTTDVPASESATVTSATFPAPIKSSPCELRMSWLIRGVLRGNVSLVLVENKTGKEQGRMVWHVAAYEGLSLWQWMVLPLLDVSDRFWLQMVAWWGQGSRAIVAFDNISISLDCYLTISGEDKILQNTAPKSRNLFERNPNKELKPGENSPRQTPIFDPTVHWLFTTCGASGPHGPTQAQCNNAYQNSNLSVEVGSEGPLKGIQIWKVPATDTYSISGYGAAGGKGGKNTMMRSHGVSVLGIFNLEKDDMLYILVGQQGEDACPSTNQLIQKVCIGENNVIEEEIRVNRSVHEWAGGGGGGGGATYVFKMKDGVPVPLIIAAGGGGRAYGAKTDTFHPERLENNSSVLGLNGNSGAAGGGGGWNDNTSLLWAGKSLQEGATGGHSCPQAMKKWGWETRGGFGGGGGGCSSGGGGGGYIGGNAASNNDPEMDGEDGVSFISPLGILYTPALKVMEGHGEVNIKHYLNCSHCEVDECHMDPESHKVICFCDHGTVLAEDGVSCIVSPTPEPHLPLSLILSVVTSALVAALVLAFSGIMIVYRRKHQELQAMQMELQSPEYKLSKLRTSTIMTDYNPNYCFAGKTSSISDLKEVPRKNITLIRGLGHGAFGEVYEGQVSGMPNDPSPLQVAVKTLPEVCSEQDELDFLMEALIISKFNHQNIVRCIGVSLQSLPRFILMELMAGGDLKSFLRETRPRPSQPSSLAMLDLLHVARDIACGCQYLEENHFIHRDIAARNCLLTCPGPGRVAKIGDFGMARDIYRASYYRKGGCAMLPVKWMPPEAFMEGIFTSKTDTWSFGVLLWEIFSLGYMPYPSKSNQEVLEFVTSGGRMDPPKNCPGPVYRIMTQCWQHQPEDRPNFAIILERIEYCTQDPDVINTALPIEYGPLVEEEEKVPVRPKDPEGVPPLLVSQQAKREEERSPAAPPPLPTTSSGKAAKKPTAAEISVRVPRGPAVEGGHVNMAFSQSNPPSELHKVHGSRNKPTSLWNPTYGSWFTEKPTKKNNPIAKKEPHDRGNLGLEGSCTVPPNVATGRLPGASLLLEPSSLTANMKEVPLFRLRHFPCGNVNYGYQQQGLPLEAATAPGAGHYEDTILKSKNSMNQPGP

Row | IC50 [1] [nM] | IC50 ([2]; NCI-H2228, 96 h) [nM] | SMILES | IC50 ([2]; 96 h) [nM]
1 | 49 | 1080 | Cc1cc(Nc2ncc(Cl)c(Nc3cn(C)nc3S(=O)(=O)C(C)C)n2)c(C(F)(F)F)cc1C1CCN(C)CC1 [Final product 32] | –
2 | 23 | 403 | Cc1cc(Nc2ncc(Cl)c(Nc3cn(C)nc3S(=O)(=O)C(C)C)n2)c(OC(CF)CF)cc1C1CCN(C)CC1 [Final product 34] | –
3 | 15 | 326 | Cc1cc(Nc2ncc(Cl)c(Nc3cn(C)nc3S(=O)(=O)CC(C)C)n2)c(OC(C)C)cc1C1CN(C)C1 [Final product 36] | –
4 | 4 | 131 | Cc1cc(Nc2ncc(Cl)c(Nc3cn(C)nc3S(=O)(=O)C(C)C)n2)c(OC(C)C)cc1C1CCN(C)C1 (stereo not drawn) [Final product 37] | –
5 | 18 | 146 | CC(C)S(=O)(=O)c1nn(C2CC2)cc1Nc1nc(Nc2ccc(C3CCN(C)CC3)cc2OC(F)(F)F)ncc1Cl [Final product 38] | –
6 | 48 | 226 | Cc1cc(Nc2ncc(Cl)c(Nc3cn(C)nc3S(=O)(=O)C(C)C)n2)c(OCC2CC2)cc1C1CCN(C)CC1 [Final product 39] | –
7 | 5 | 36 | CC(C)S(=O)(=O)c1nn(C)cc1Nc1nc(Nc2ccc(C3CCN(C)CC3)cc2OC2CC2)ncc1Cl [Final product 40] | –
8 | 3 | 33 | CC(C)S(=O)(=O)c1nn(C)cc1Nc1nc(Nc2ccc(C3CCN(C)C3)cc2OC2CC2)ncc1Cl (stereo not drawn) [Final product 41] | –
9 | 3 | 29 | CC(C)S(=O)(=O)c1nn(C2CC2)cc1Nc1nc(Nc2ccc(C3CCN(C)CC3)cc2OC2CC2)ncc1Cl [Final product 42] | –
10 | 12 | 125 | CC(C)CS(=O)(=O)c1nn(C)cc1Nc1nc(Nc2ccc(C3CCN(C)CC3)cc2OC2CC2)ncc1Cl [Final product 43] | –
11 | 10 | 135 | CC(C)S(=O)(=O)c1nn(C)cc1Nc1nc(Nc2cc(F)c(C3CCN(C)C3)cc2OC2CC2)ncc1Cl (stereo not drawn) [Final product 45] | –
12 | 6 | 127 | CC(C)S(=O)(=O)c1nn(C2CC2)cc1Nc1nc(Nc2cc(F)c(C3CCN(C)CC3)cc2OC2CC2)ncc1Cl [Final product 46] | –
13 | 10 | 103 | CC(C)S(=O)(=O)c1nn(C)cc1Nc1nc(Nc2cc(Cl)c(C3CCN(C)CC3)cc2OC2CC2)ncc1Cl [Final product 47] | –
14 | 5 | 115 | CC(C)S(=O)(=O)c1nn(C2CC2)cc1Nc1nc(Nc2cc(Cl)c(C3CCN(C)CC3)cc2OC2CC2)ncc1Cl [Final product 48] | –
15 | 13 | 165 | CC(C)S(=O)(=O)c1nn(C)cc1Nc1nc(Nc2cc(C#N)c(C3CCN(C)CC3)cc2OC2CC2)ncc1Cl [Final product 49] | –
16 | 7 | 86 | Cc1cc(Nc2ncc(Cl)c(Nc3cn(C)nc3S(=O)(=O)C(C)C)n2)c(OC2CC2)cc1C1=CCN(C)CC1 [Final product 50] | –
17 | 3 | 26 | Cc1cc(Nc2ncc(Cl)c(Nc3cn(C)nc3S(=O)(=O)C(C)C)n2)c(OC2CC2)cc1C1CC(C)N(C)C(C)C1 (stereo not drawn) [Final product 95] | –
18 | 19 | 174 | Cc1cc(Nc2ncc(Cl)c(Nc3cn(C)nc3S(=O)(=O)C(C)C)n2)c(OC2CC2)cc1C1CCOCC1 [Final product 107] | –
19 | 7 | 188 | Cc1cc(Nc2ncc(Cl)c(Nc3cn(C)nc3S(=O)(=O)C(C)C)n2)c(OC2CC2)cc1OC1CCN(C)CC1 [Final product 111] | –
20 | 10 | 101 | CCN1CCC(c2cc(OC(C)C)c(Nc3ncc(Cl)c(Nc4cn(C)nc4S(=O)(=O)C(C)C)n3)cc2C)CC1 [Final product 118] | –
21 | 12 | 142 | Cc1cc(Nc2ncc(Cl)c(Nc3cn(C)nc3S(=O)(=O)C(C)C)n2)c(OC(C)C)cc1C1CCN(C(C)C)CC1 [Final product 126] | –
22 | 12 | 142 | Cc1cc(Nc2ncc(Cl)c(Nc3cn(C)nc3S(=O)(=O)CC(C)C)n2)c(OC2CC2)cc1C1CCN(C(C)C)CC1 [Final product 127] | –
23 | 7 | 33 | CCOc1cc(C2CCN(CCO)CC2)c(C)cc1Nc1ncc(Cl)c(Nc2cn(C)nc2S(=O)(=O)C(C)C)n1 [Final product 135] | –

Continued, molecule first:

Row | SMILES | IC50 [1] [nM] | IC50 ([2]; NCI-H2228, 96 h) [nM] | IC50 ([2]; 96 h) [nM]
24 | Cc1cc(Nc2ncc(Cl)c(Nc3cn(C)nc3S(=O)(=O)C(C)C)n2)c(OC(C)C)cc1C1CNC1 [Final product 4] | 13 | 288 | –
25 | Cc1cc(Nc2ncc(Cl)c(Nc3cn(C4CC4)nc3S(=O)(=O)C(C)C)n2)c(OC(C)C)cc1C1CCNCC1 [Final product 5] | 12 | 248 | –
26 | Cc1cc(Nc2ncc(Cl)c(Nc3cn(C)nc3S(=O)(=O)CC(C)C)n2)c(OC(C)C)cc1C1CCNCC1 [Final product 6] | 7 | 193 | –
27 | CCC(C)S(=O)(=O)c1nn(C)cc1Nc1nc(Nc2cc(C)c(C3CCNCC3)cc2OC(C)C)ncc1Cl (stereo not drawn) [Final product 7] | 12 | 224 | –
28 | Cc1cc(Nc2ncc(Cl)c(Nc3cn(C)nc3S(=O)(=O)C(C)C)n2)c(OC(CF)CF)cc1C1CCNCC1 [Final product 8] | 10 | 562 | –
29 | CC(C)S(=O)(=O)c1nn(C)cc1Nc1nc(Nc2ccc(C3CCNCC3)cc2OC(F)(F)F)ncc1Cl [Final product 9] | 35 | 652 | –
30 | Cc1cc(Nc2ncc(Cl)c(Nc3cn(C)nc3S(=O)(=O)C(C)C)n2)c(OC(F)(F)F)cc1C1CCNCC1 [Final product 10] | 13 | 188 | –
31 | Cc1cc(Nc2ncc(Cl)c(Nc3cn(C)nc3S(=O)(=O)C(C)C)n2)c(C(F)(F)F)cc1C1CCNCC1 [Final product 11] | 39 | 641 | –
32 | Cc1cc(Nc2ncc(Cl)c(Nc3cn(C)nc3S(=O)(=O)C(C)C)n2)c(OCC2CC2)cc1C1CCNCC1 [Final product 12] | 17 | 262 | –
33 | CC(C)S(=O)(=O)c1nn(C)cc1Nc1nc(Nc2ccc(C3CCNCC3)cc2OC2CC2)ncc1Cl [Final product 13] | 7 | 58 | –
34 | CC(C)S(=O)(=O)c1nn(C)cc1Nc1nc(Nc2ccc(C3=CCNCC3)cc2OC2CC2)ncc1Cl [Final product 14] | 6 | 168 | –
35 | CC(C)S(=O)(=O)c1nn(C)cc1Nc1nc(Nc2ccc(C3CCNC3)cc2OC2CC2)ncc1Cl (stereo not drawn) [Final product 15] | 5 | 48 | –
36 | CC(C)S(=O)(=O)c1nn(C2CC2)cc1Nc1nc(Nc2ccc(C3CCNCC3)cc2OC2CC2)ncc1Cl [Final product 16] | 7 | 39 | –
37 | CC(C)CS(=O)(=O)c1nn(C)cc1Nc1nc(Nc2ccc(C3CCNCC3)cc2OC2CC2)ncc1Cl [Final product 17] | 13 | 278 | –
38 | CC(C)CS(=O)(=O)c1nn(C)cc1Nc1nc(Nc2ccc(C3CCNC3)cc2OC2CC2)ncc1Cl (stereo not drawn) [Final product 18] | 4 | 157 | –
39 | CC(C)S(=O)(=O)c1nn(C)cc1Nc1nc(Nc2cc(F)c(C3CCNC3)cc2OC2CC2)ncc1Cl (stereo not drawn) [Final product 20] | 34 | 384 | –
40 | CC(C)S(=O)(=O)c1nn(C2CC2)cc1Nc1nc(Nc2cc(F)c(C3CCNCC3)cc2OC2CC2)ncc1Cl [Final product 21] | 2 | 62 | –
41 | CC(C)S(=O)(=O)c1nn(C)cc1Nc1nc(Nc2cc(Cl)c(C3CCNCC3)cc2OC2CC2)ncc1Cl [Final product 22] | 12 | 115 | –
42 | CC(C)S(=O)(=O)c1nn(C2CC2)cc1Nc1nc(Nc2cc(Cl)c(C3CCNCC3)cc2OC2CC2)ncc1Cl [Final product 23] | 8 | 107 | –
43 | Cc1cc(Nc2ncc(Cl)c(Nc3cn(C)nc3S(=O)(=O)C(C)C)n2)c(OC2CC2)cc1C1CCNCC1 [Final product 24] | 4 | 122 | –
44 | Cc1cc(Nc2ncc(Cl)c(Nc3cn(C)nc3S(=O)(=O)C(C)C)n2)c(OC2CC2)cc1C1=CCNCC1 [Final product 25] | 5 | 190 | –
45 | Cc1cc(Nc2ncc(Cl)c(Nc3cn(C)nc3S(=O)(=O)C(C)C)n2)c(OC2CC2)cc1C1CCNC1 (stereo not drawn) [Final product 26] | 6 | 217 | –
46 | Cc1cc(Nc2ncc(Cl)c(Nc3cn(C4CC4)nc3S(=O)(=O)C(C)C)n2)c(OC2CC2)cc1C1CCNCC1 [Final product 27] | 6 | 168 | –
47 | Cc1cc(Nc2ncc(Cl)c(Nc3cn(C)nc3S(=O)(=O)CC(C)C)n2)c(OC2CC2)cc1C1CCNCC1 [Final product 28] | 15 | 134 | –
48 | CC(C)S(=O)(=O)c1nn(C)cc1Nc1nc(Nc2cc(C#N)c(C3CCNCC3)cc2OC2CC2)ncc1Cl [Final product 29] | 7 | 159 | –
49 | CC(C)S(=O)(=O)c1nn(C)cc1Nc1nc(Nc2ccc(C3CCN(C)CC3)cc2OC(F)(F)F)ncc1Cl [Final product 30] | 18 | 93 | –
50 | Cc1cc(Nc2ncc(Cl)c(Nc3cn(C)nc3S(=O)(=O)C(C)C)n2)c(OC(F)(F)F)cc1C1CCN(C)CC1 [Final product 31] | 10 | 374 | –
51 | Cc1cc(Nc2ncc(Cl)c(Nc3cn(C)nc3S(=O)(=O)C(C)C)n2)c(OC2CC2)cc1C1CCN(CCO)CC1 [Final product 133, 2-(4-(4-(5-chloro-4-(3-(isopropylsulfonyl)-1-methyl-1H-pyrazol-4-amino)pyrimidin-2-amino)-5-cyclopropoxy-2-methylphenyl)piperidin-1-yl) ethanol] | 6 | – | 41
